Measurements published in patent publication US12258360B2, “Compositions and methods for treatment of anticancer-drug resistant cancers” (THE GEORGE WASHINGTON UNIVERSITY, priority 2020, dated 2025).

What was measured:
SREBP target gene SCD-1 = test: RT-PCR detection of SCD-1 gene expression in AN3CA cells; type: cell-based, human; conditions: 10 μM; for Relative mRNA expression of SCD-1: 48 h, DMSO = 1
Description: • 1. Experimental reagent • 2. The experimental steps are as follows: • 2.1 AN3CA cell recovery and culture (10% serum 1% double antibody in MEM medium); • 2.2 passages (passage at a ratio of 1:2); • 2.3 Place 6 well plates when the cell status is good, 5×10^5Well, culture overnight; • 2.4 adding medicine: diluting the final concentration of the drug with a culture medium to 10 μM, 2 mL/well; • 2.5 adding medicine for 48 h, and then extracting RNA; • 2.5.1 removing the culture medium, adding 0.5 mL/hole Trizol to lyse the cells, repeatedly blowing and beating the cells by a pipette after 5 min, completely lysing the cells, transferring the cells into a 1.5 mL EP tube without RNase, and standing the tube for 5 min; • 2.5.2 adding 200 µl chloroform, shaking rapidly, mixing, standing for 10 min 12000 rpm/15 min; • 2.5.3 carefully taking out the supernatant, transferring the supernatant into an EP tube, adding isopropanol with the same volume, reversing, uniformly mixing, standing for 10 min, and centrifuging at 12000 rpm/10 min; • 2.5.4 removing the supernatant, adding 1 mL of 75% ethanol for washing, centrifuging at 8000 rpm/5 min once, carefully removing the supernatant, standing at room temperature for 10 min to volatilize the ethanol, and dissolving the precipitate with 40 μL of DEPC treated water when the precipitate becomes transparent; • 2.5.5 RNA concentration was measured and DEPC-treated water was diluted to 100 ng/μL • 2.6 reverse transcription: Kit Takara (PrimeScript RT reagent Kit (Perfect Real Time)

AN3CA cells [1] = test: cell clonogenic assay in AN3CA cells; type: cell-based, human
Description: • 1. The experimental steps are as follows: • 1.1 AN3CA cell recovery and culture (MEM medium, 10% serum, 1% double antibody); • 1.2 Passages (1:2 ratio passage); • 1.3 When the cell state is good, laying 6-hole plates, 500/hole, and culturing overnight; • 1.4 Adding medicine: […], 2 mL/well; • 1.5 Adding medicine in a liquid changing mode every two days; • 1.6 Frequent observation. The culture was terminated when macroscopic colonies appeared in the culture dish. The supernatant was discarded, carefully rinsed 2 times with PBS and air dried. Cells were fixed with 5 mL of 4% paraformaldehyde for 30 minutes or with methanol for 10 minutes. And (3) removing the stationary liquid after air drying, adding a proper amount of GIMSA, dyeing for 10-30 minutes by using the dyeing liquid, then slowly washing away the dyeing liquid by using running water, and air drying. • 1.7 Plates were inverted and overlaid with a piece of transparent film with grid and clones were counted either directly with the naked eye or with a microscope (low power) for clones larger than 10 cells. And finally calculating the clone formation rate. • 1.8 Percent colony formation rate (number of clones/number of inoculated cells)×100%

AN3CA cells [2] = test: cell proliferation assay (MTS) in AN3CA cells; type: cell-based, human; conditions: 48 h; for inhibition of AN3CA cell proliferation (in words): 10 μM
Description: • 1. The experimental steps are as follows: • 1.1 AN3CA cell recovery and culture (MEM medium, 10% serum, 1% double antibody); • 1.2 Passages (passage at a ratio of 1:2); • 1.3 Place 96-well plate when the cell status is good, 1×10^4 Well, culture overnight; • culture medium with 10% defatted serum • 1.4 Adding medicine: diluting the final concentration of the drug with a culture medium to 10 μM, and treating for 48 h at 100 μL/well; • culture medium with 10% defatted serum • 1.5 Addition of 2 μL MTS/well, care taken to prevent bubble formation, 490 nm data after 1-4 h

And-1 [3] = biological target: T1, And-1 (Homo sapiens, UniProt O75717); test: inhibition of And-1 in IGROV1 CR cells; type: cell-based; set-up: endogenous in cells; host or cells: IGROV1 CR; conditions: inhibition of And-1, IGROV1 CR cells
T1 sequence (O75717 1-1129): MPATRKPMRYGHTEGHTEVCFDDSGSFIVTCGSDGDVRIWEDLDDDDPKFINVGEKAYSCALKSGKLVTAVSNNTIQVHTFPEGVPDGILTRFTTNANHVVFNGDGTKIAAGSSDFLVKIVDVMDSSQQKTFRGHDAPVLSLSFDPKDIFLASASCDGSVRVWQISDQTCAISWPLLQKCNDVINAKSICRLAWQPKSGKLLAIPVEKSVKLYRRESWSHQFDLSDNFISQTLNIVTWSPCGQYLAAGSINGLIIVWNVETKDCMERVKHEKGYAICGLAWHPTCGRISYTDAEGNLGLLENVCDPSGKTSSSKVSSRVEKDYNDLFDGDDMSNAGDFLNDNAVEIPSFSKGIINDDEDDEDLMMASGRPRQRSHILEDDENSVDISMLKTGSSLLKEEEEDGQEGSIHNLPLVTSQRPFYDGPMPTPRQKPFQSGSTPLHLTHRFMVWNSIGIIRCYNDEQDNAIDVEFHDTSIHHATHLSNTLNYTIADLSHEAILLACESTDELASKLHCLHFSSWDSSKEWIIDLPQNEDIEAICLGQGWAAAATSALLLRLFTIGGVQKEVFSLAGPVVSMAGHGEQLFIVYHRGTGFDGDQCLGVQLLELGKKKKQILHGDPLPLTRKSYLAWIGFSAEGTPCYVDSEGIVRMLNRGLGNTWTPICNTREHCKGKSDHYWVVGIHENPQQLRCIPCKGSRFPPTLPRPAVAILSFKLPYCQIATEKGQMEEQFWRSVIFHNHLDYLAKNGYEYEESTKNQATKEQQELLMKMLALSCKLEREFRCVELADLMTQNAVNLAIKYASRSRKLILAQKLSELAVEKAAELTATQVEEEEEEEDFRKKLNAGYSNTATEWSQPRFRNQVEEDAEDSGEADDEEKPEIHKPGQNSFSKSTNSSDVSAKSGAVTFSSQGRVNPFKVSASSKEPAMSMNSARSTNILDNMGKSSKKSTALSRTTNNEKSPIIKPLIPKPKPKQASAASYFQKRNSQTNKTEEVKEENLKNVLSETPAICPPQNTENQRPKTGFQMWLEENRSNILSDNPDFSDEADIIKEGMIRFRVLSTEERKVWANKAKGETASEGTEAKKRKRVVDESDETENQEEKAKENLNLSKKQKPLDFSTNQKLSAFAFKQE

And-1 [4] = biological target: T1, And-1; test: inhibition of And-1 in OV90 CR cells; type: cell-based; set-up: endogenous in cells; conditions: inhibition of And-1, OV90 CR cells
And-1 [5] = biological target: T1, And-1; test: immunoblot analysis of And-1 expression in IGROV1 cells; type: cell-based; set-up: endogenous in cells; host or cells: IGROV1 CR; conditions: immunoblot, read-out: IC50 for inhibition of And-1 expression
Description: The high IC50 of resveratrol compromises its potential clinical application; therefore, resveratrol was used as a lead compound to screen 12 analogs of resveratrol for potent compounds that can inhibit And-1 (FIG. 14). […] To perform immunoblot analyses, cells were first treated with increasing concentrations of the 12 analogs. After treatment, the cells were harvested and then lysed with RIPA buffer protease inhibitor and phosphatase inhibitor cocktail. Protein concentration was determined by the BCA protein assay. Equal amounts of whole cell lysates were separated on sodium dodecyl sulfate polyacrylamide gel electrophoresis (SDS-PAGE) and transferred onto nitrocellulose membranes. Membranes were then incubated in blocking solution (5% non-fat milk in 20 mM TRIS-HCl, 150 mM NaCl, 0.1% Tween-20) (TBST), followed by incubation with the indicated antibodies at 4° C. overnight. The membranes were then washed in TBST and incubated with HRP-conjugated secondary antibodies for 1 hour at room temperature (21° C.±2° C.). Antibody detection was performed with an enhanced chemiluminescence reaction.

[6] = tested on: recruitment of CtIP to DSB sites in IGROV1 cells; test: immunofluorescence assay of CtIP co-localization with γH2AX after micro-irradiation; type: cell-based, human; conditions: 1 μM, 30 minutes post irradiation
Description: H2AX (H2A histone family member X) becomes phosphorylated on serine 139 (wherein the phosphorylated form is then called […]) as a reaction on DNA double-strand breaks (DSB). And-1 regulates DSB end resection by establishing a condition or acting as a platform for recruitment of the tumor suppressor protein CtIP—a CtBP (carboxy-terminal binding protein)-interacting protein, to the DSB sites. […] In brief, IGROV1 cells were cultured on coverslips coated with 0.01% of poly-L-lysine. After treatment, the cells were then washed once with PBS, then pre-extracted with 0.5% Triton X-100 extraction buffer (10 mM PIPES pH 7.0, 100 mM NaCl, 3 mM MgCl2 and 300 mM sucrose) on ice for 5 minutes. After washing with PBS, cells were fixed with 4% paraformaldehyde in PBS for 15 minutes. Cells were then washed and incubated for 10 minutes in blocking buffer (PBS containing 3% BSA and 0.02% Tween-20) and subsequently incubated for 1 hour with a primary antibody at room temperature. Cells were washed three times with PBS-T (PBS containing 0.02% Tween-20) and then incubated with a secondary antibody (e.g., rabbit Alexa Fluor-594 and mouse Alexa Fluor-488). After washing with PBS-T, cells were mounted with Fluoromount G containing DAPI (4′,6-diamidino-2-phenylindole—a fluorescent stain that binds strongly to adenine-thymine-rich regions in DNA). Slides were then imaged using a Nikon Eclipse 80i microscope. […]

IGROV1 cells = test: flow cytometry (FACS) of propidium-iodide stained IGROV1 cells; type: cell-based, human; conditions: 1 μM
IGROV1 CR xenograft = type: in vivo, mice
Description: To evaluate the potency of And-1 inhibitors in vivo, IGROV1 or MCF7 cells were subcutaneously implanted into nude mice to form ovarian or breast tumors, respectively. In brief, 5-6 week-old female BALB/c athymic nude mice (CByJ.Cg-Foxn1nu/J, weighting 20-25 grams) were inoculated subcutaneously by injecting the OC cells, cisplatin resistant OC cells or breast cancer cells suspended in 100 μl ice-cold Matrigel/PBS (1:1, V:V; 5×10^6/mouse) into the dorsal flank of each mouse. When the average tumor volume reached 100-150 mm^3, the mice were randomized into subsequent experiment groups. For tumors treated with CH3 only, CH3 was given at 0 mg/kg, 20 mg/kg and 40 mg/kg via intraperitoneal injection twice a week for three weeks. […] The relative tumor volumes were calculated using the formula: a×(b^2)/2, for which a and b represented the longest and shortest diameters, respectively. During the drug treatment, the tumor volume and body weight were measured. Tumor samples were collected 4 days after final administration of the drug.
To assess the efficacy of combination therapy with And-1 inhibitor and cisplatin in vivo, an IGROV1 CR xenograft was treated with vehicle, And-1 inhibitors, cisplatin or combination of cisplatin and And-1 inhibitor via intraperitoneal injection.

And-1 [7] = biological target: T1, And-1; test: cellular thermal shift assay; type: binding; set-up: endogenous in cells; host or cells: IGROV1 CR; conditions: cells incubated 8 hours, compared to DMSO
Description: To explore whether And-1 inhibitors directly bind to And-1, cellular thermal shift assays were performed in which a small molecule binds to a protein resulting in thermal stabilization of the protein. Briefly, cells were incubated with MG132 (10 μM), DHS, CH3, CH10 or DMSO for 8 hours. After washing with ice-cold PBS (suppled with Protease Inhibitor Cocktail), cells were aliquoted into PCR tubes (100 μL each) and then incubated at different temperatures (from 25° C. to 71° C.) for 4 minutes. After the cells were frozen and thawed twice using liquid nitrogen, proteins were isolated from the cells after centrifugation and incubated at 70° C. for 10 minutes for analysis by western blotting.

Question: `OB1OCc2cc(/C=C/c3cccc(C(F)(F)F)c3)ccc21` [Compound II, (E)-5-(3-(trifluoromethyl)styryl)benzo[c][1,2]oxaborol-1(3H)-ol] was tested. Which “activity of reducing SCD-1 gene expression (in words)” value (SREBP target gene SCD-1; AN3CA cells) did it give?
Answer: better than those of BF-175

Question: And the “Relative mRNA expression of SCD-1” value (SREBP target gene SCD-1; AN3CA cells)?
Answer: 0.39

Question: And the “inhibitory effect on Srebp” value (SREBP target gene SCD-1; human endometrial cancer AN3CA cells)?
Answer: high inhibitory effect

Question: And the “inhibition of clone formation rate” value (AN3CA cells [1]; 10 μM)?
Answer: completely inhibit

Question: And the “inhibition of AN3CA cell proliferation (in words)” value (AN3CA cells [2])?
Answer: superior to BF 175

Question: And the inhibition at 10 µM (AN3CA cells [2]; Homo sapiens, AN3-CA, MTS)?
Answer: 80%

Question: And the IC50 (And-1 [3])?
Answer: 20.4 µM

Question: And the IC50 (And-1 [4])?
Answer: 21.1 µM

Question: With `CC(=O)O.Cc1c(-c2ccc(O)cc2)n(Cc2ccc(OCCN3CCCCCC3)cc2)c2ccc(O)cc12` [BZA, reference compound] as the compound, how does the IC50 (And-1 [5]) read?
Answer: 0.32 µM

Question: And the “recruitment of CtIP to DSB sites induced by micro-irradiation” value [6]?
Answer: significantly decreased

Question: And the “percentage of cells in the S-phase” value (IGROV1 cells)?
Answer: reduced the percentage of cells in the S-phase

Question: And the “And-1 expression in tumor samples (IHC)” value (IGROV1 CR xenograft; IGROV1 CR xenograft)?
Answer: suppressed expression of And-1

Question: And the “tumor growth, combination with cisplatin vs cisplatin alone” value (IGROV1 CR xenograft; IGROV1 CR xenograft, cisplatin 8 mg/kg, CH3 20 mg/kg, BZA 2 mg/kg intraperitoneally, three weeks)?
Answer: excellent synergy in reducing tumor growth

Question: And the “systemic toxicity of combination with cisplatin (body weight, H&E staining)” value (IGROV1 CR xenograft; mouse, in vivo)?
Answer: no obvious systemic toxicity or side effect

Question: What does the source list for `OB1OCc2cc(/C=C/c3cc(Cl)cc(Cl)c3)ccc21` [XIV, (E)-5-(3,5-dichlorostyryl)benzo[c][1,2]oxaborol-1(3H)-ol]?
Answer: Relative mRNA expression of SCD-1 (SREBP target gene SCD-1; AN3CA cells): 0.46; inhibition of clonogenic rate (AN3CA cells [1]; 5 μM): comparable to that of 10 μM BF 175; inhibition of AN3CA cell proliferation (in words) (AN3CA cells [2]): different degrees of inhibition; IC50 (And-1 [3]): 25.7 µM; IC50 (And-1 [4]): 29.9 µM

Question: What does the source list for `Oc1ccc(/C=C/c2ccc(O)cc2)cc1` [DHS, reference compound]?
Answer: IC50 (And-1 [5]): 8.92 µM; thermal stabilization of And-1 protein at higher temperatures (And-1 [7]): stabilized
